Laboratory results published in publication PMC6215199 (Toxins, 2018).
Entries after “also recorded” stand apart in the source; their conditions may differ.

Key:
[1] = target: T1, Batx-I (Bothrops atrox, UniProt P0DJE1); experiment: biochemical; assay type: biochemical
[2] = target: T1, Batx-I; assay type: biochemical
[3] = target: T1, Batx-I; conditions: cited from earlier work
[4] = system: BaP1; conditions: EDTA chelates the catalytic Zn2+ ion; cited from earlier work

T1 sequence (P0DJE1 whole entry, looked up): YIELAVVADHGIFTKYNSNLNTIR

C=C(C)[C@@H]1CC[C@]2(CO)CC[C@]3(C)[C@H](CC[C@@H]4[C@@]5(C)CC[C@H](O)C(C)(C)[C@@H]5CC[C@]43C)[C@@H]12 [Betulin]
Inhibition of metalloproteinase proteolytic activity (in words) [1]: negligible activity
IC50 [1]: 1470 ± 130 µM

C=C(C)[C@@H]1CC[C@]2(C(=O)O)CC[C@]3(C)[C@H](CC[C@@H]4[C@@]5(C)CC[C@H](O)C(C)(C)[C@@H]5CC[C@]43C)[C@@H]12 [Betulinic acid]
IC50 [1]: 115 ± 16 µM
Type of inhibition [2]: competitive inhibitors
ΔG^∘ Experimental [2]: -4.5 ± 0.1 kcal/mol

O=C(O)CN(CCN(CC(=O)O)CC(=O)O)CC(=O)O [EDTA, Ethylenediamine-tetraacetic acid]
Effect on proteolytic activity of Batx-I [3]: eliminated
Effect on proteolytic activity of BaP1 [4]: eliminated

C[C@H]1[C@H](C)CC[C@]2(C(=O)O)CC[C@]3(C)C(=CC[C@@H]4[C@@]5(C)C[C@@H](O)[C@H](O)[C@@](C)(CO)[C@@H]5[C@H](O)C[C@]43C)[C@H]12 [Madecassic acid]
IC50 [1]: 540 ± 80 µM

CC1(C)CC[C@]2(C(=O)O)CC[C@]3(C)C(=CC[C@@H]4[C@@]5(C)CC[C@H](O)C(C)(C)[C@@H]5CC[C@]43C)[C@@H]2C1 [Oleanolic acid]
IC50 [1]: 360 ± 70 µM
Type of inhibition [2]: competitive inhibitors
ΔG^∘ Experimental [2]: -3.7 ± 0.1 kcal/mol

C[C@H]1[C@H](C)CC[C@]2(C(=O)O)CC[C@]3(C)C(=CC[C@@H]4[C@@]5(C)CC[C@H](O)C(C)(C)[C@@H]5CC[C@]43C)[C@H]12 [Ursolic acid]
IC50 [1]: 220 ± 40 µM
Type of inhibition [2]: competitive inhibitors
ΔG^∘ Experimental [2]: -3.5 ± 0.1 kcal/mol

CC1CCC2(C)CCC3(C)C(=CCC4C5(C)CCC(O)C(C)(C(=O)O)C5CCC43C)C2C1C (stereo not drawn) [β -Boswellic acid]
Inhibition of metalloproteinase proteolytic activity (in words) [1]: negligible activity; also recorded: does not inhibit
activity at 2000 µM ([1]; read-out: Batx-I proteolytic activity still observed): 70%
